Source: patent US6534077B2, “Organosiloxane containing modified groups in agricultural compositions” (Crompton Corporation, priority 2000, dated 2003)

Test system: Barnyardgrass (Echinochloa crus-galli)
Assay: Effect of adjuvant on glyphosate-IPA efficacy on barnyardgrass with simulated rainfall
Assay type: in vivo
Conditions: 0.75 wt % glyphosate-IPA without adjuvant, rainfall 2 h after application
Procedure: Barnyardgrass (Echinochloa crus-galli) 10 cm in height were treated with 0.75 wt % (a.i.) glyphosate, isopropylamine salt (Monsanto), either alone, or plus a spray adjuvant (0.05 and 0.1 wt % respectively). The spray was applied at 100 L/ha using a T-Jet 8002E nozzle. The plants were subjected to simulated rainfall (2.5 cm), 2 h after herbicide application, to determine the rainfastening ability of the adjuvants. Plants were evaluated at week 1 and 2 weeks after treatment, by visual observation, relative to the untreated check. A score of 0 means no plant injury, while a score of 100 indicates total control (burndown, with no regrowth).

## CC(C)N.O=C(O)CNCP(=O)(O)O [glyphosate-IPA, glyphosate, isopropylamine salt]
1 week after treatment
  Percent Control 1 WAT: 7.5d %
2 weeks after treatment
  Percent Control 2 WAT: 18.75c %
